According to publication PMC7998563 (Viruses, 2021):

Biological target: T1, HCMV core nuclear egress complex (core NEC), pUL50-pUL53 (Human herpesvirus 5 strain AD169, UniProt P16791+P16794)
T1 construct: gene NEC2; pUL50 His-tagged, pUL53 coated on plate; heterodimer
Test: ELISA-type pUL50-pUL53 interaction inhibition assay, anti-His-HRP detection
Assay type: binding

T1 sequence (P16791 1-181): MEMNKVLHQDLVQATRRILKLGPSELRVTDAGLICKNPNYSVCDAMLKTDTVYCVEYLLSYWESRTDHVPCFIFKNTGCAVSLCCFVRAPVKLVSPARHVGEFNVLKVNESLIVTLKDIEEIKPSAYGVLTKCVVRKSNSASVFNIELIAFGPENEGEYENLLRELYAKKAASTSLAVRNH
T1 sequence (P16794 50-292): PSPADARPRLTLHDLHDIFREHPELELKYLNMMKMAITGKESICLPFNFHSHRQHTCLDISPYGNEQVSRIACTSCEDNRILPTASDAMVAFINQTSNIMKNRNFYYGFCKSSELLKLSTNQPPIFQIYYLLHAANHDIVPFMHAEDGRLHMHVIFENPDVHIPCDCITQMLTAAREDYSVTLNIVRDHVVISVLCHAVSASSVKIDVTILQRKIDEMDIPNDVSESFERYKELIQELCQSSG

**Q.** How did the IC50 turn out when `O=C(O)c1ccccc1-c1c2cc(Br)c(=O)[c]([Hg+])c-2oc2cc(O)c(Br)cc12` [P10G08, merbromin] was run?
**A.** The IC50 was 38 nM.
